# Where two headings read alike, the source gives them in different places.
# Legend:
# Mutul-Hp-Luc cells [1] = assay: microbe, parasite or virus in culture; assay type: cell-based, Epstein-Barr Virus (EBV)
# Text: BHLF1 promoter (Hp) or the BZ1F1 promoter (Zp) was cloned into pHEBO plasmid into Nhel and HindIII restriction sites of pHEBO-luc plasmid (Yates, 1985, Nature, 313:812-815; and Deng, 2001, J. Virol. 75:10334-10347). To create pHEBO-GFP, most of luciferase gene was excised by BsrGI and HindIII sites and replaced with EGFP excised from pEGFP-N1 (Clontech). Mutul cells were transfected with the new pHEBO-Zp-luc, pHEBO-Hp-luc (FIG. 8) or pHEBO-Hp-GFP constructs and transfected cells were selected with 400 μg/mL of Hygromycin. After 2 weeks of selection, stable hygromycin-resistant cells were seeded at 5000 per well in 384 well white plates and assayed as described below.
# Columns 1, 2, 23, and 24 received DMSO (0.2% final concentration). The remaining 320 wells in columns 3-22 received test compounds at a final concentration of 10 μM cumulative concentration for the 5 compounds/2 μM individual compound concentration/0.2% final DMSO concentration. Cells were incubated with compounds for 48 h at 37° C./5% CO2. Twenty microliters of Steady-Glo® Luciferase Reagent (Promega) was added to assay plates and incubated for 15 minutes at room temperature. Plates were centrifuged and luminescence was measured on an EnVision® Excite multilabel microplate reader, using the ultrasensitive luminescence measurement technology (Perkin Elmer).
# To confirm the activity of candidate compounds identified after deconvolution that exceeded the cutoff parameter, liquid stock from the screening library was retested as single compounds at a final concentration of 10 μM, using assay conditions identical to the primary high-throughput screen.
# To eliminate confirmed actives that may interfere with the assay technology by inhibiting luciferase, the activity of the compounds were tested in a biochemical luciferase assay counterscreen (Auld, 2008, J. Med. Chem., 51:2372-2386). To quantitatively assess the activity and prioritize compounds for further follow-up, fresh liquid stocks prepared from powders were reformatted as a 10 point dilution series spanning at least 3-logs, starting at 10 μM, the initial screening concentration. Data for test compounds was normalized to DMSO and NaB (1 mM) plate controls to calculate fold stimulation and z-factor (σ is variance/standard deviations), μ is mean of positive (p) and negative (n) controls). Z-factor is a statistical measurement that assesses the quality of the assay and predicts if the assay can be useful in a high-throughput screening. Z factors above 0.5 are considered acceptable. The screen's Z-factor was above 0.
# The relative EC50 for each compound, i.e., the concentration of compound that produced 50% of the maximum effect, was calculated using a […] non-linear regression analysis (GraphPad Prism® 6 software). Error bars represent SD for each concentration of a compound. To assist with decision making points, compound activities were stratified into 4 categories: […]
# [2] = system: histone H3 acetylation in Mutul and Mutu-LCL352 cells; assay: immunoblot for acetylation of histone H3; assay type: cell-based; settings: 48 h; 2 mM NaB or 1 μM compound
# Method: (§1) FIGS. 7A-C are gels illustrating the mechanism of EBV reactivation of the compounds in distinct from HDAC inhibitors and TPA. FIG. 7A is Mutul cells treated with 2% DMSO, 2 mM NaB, 20 ng/mL TPA, or 1 μM compound for 48 h, immunoblotted, and probed for acetylation of histone H3 and β-actin. FIG. 7B is Mutu-LCL352 cells treated and probed as in described in FIG. 7A. FIG. 7C is Mutul cells treated with controls or compounds for 0.5 h, immunoblotted, and probed for phosphorylated forms of p90RSK, p53, p38MAPK, S6, total MAPK, and β-actin.
# Mutul and Mutu-LCL352 cell lines were used to test whether the newly identified EBV activators function as […] by increasing acetylation on histone H3.
# latent EBV = settings: cited from earlier work
# Mutul-Hp-Luc cells [3] = assay type: cell-based, Epstein-Barr Virus (EBV)
# EBV positive Mutul cells = assay: resazurin cytotoxicity assay with or without GCV
# Method: Mutul-Hp-Luc were seeded at 0.2 million per mL and treated with Compound 4. Compound 4 was added again 48 h. Freshly made GCV was added on Day 2 for 4 days twice a day, in the morning and 8 h later. Cell viability was measured either with Resazurin 5 days after the first Compound 4 treatment, or the cells were stained with Trypan blue on Day 6. […] Live cells were counted by the Trypan Blue stain exclusion method. […] Different concentrations of Compound 4 combined with GCV (gray bars) or without GCV (black bars) were used. Cell viability was measured as a percentage of DMSO-treated control cells. 590 nm fluorescence values are proportionate to the cell viability. Cells tested include EBV-positive Mutul (FIG. 6C), Akata (FIG. 6D), DG75 (FIG. 6E), and Mutu-LCL352 (FIG. 6F). Daily viability assay for Mutul cells treated with either DMSO, NaB, compound 4 (0.5 μM) with or without GCV was measured.
# Assay plates were prepared by seeding 25,000 Mutul cells in 50 μL of RPMI supplemented with 15% FBS in 384 well tissue culture plates (Nunc). […] Cells were incubated for 5 days at 37° C./5% CO2 and viability was monitored by the addition of 20 μL of 500 μM resazurin (Sigma) and incubation for 4 h at 37° C. Plates were centrifuged and fluorescence intensity was measured at 590 nm on an Envision® Xcite multilabel microplate reader (Perkin Elmer). […]
# [4] = in vivo; cited from earlier work
# Mutul cells = assay: cell viability by trypan blue dye exclusion, with or without GCV; assay type: cell-based; settings: 6 days, compounds at 1 μM
# Method: Mutul-Hp-Luc were seeded at 0.2 million per mL and treated with Compound 4. Compound 4 was added again 48 h. Freshly made GCV was added on Day 2 for 4 days twice a day, in the morning and 8 h later. Cell viability was measured either with Resazurin 5 days after the first Compound 4 treatment, or the cells were stained with Trypan blue on Day 6. […] Live cells were counted by the Trypan Blue stain exclusion method. […] Different concentrations of Compound 4 combined with GCV (gray bars) or without GCV (black bars) were used. Cell viability was measured as a percentage of DMSO-treated control cells. 590 nm fluorescence values are proportionate to the cell viability. […] Daily viability assay for Mutul cells treated with either DMSO, NaB, compound 4 (0.5 μM) with or without GCV was measured.
# It was tested whether combination of the newly identified activators and GCV would increase selective cell killing of EBV infected cells. […] Specifically, gangcyclovir (GCV) was combined with a sublethal dose of compounds (1 μM) to determine if it could induce cell death in Mutul cells after six days of treatment. Cell viability was measured by trypan blue dye exclusion.
# EBV positive BL cells = settings: cited from earlier work
# [5] = system: p38 MAPK, S6, p90RSK and p53 phosphorylation in Mutul cells; assay: immunoblot for phosphorylation of p38 MAPK, S6, p90RSK and p53; assay type: cell-based; settings: 0.5 h
# Method: as §1
# Cells were incubated with DMSO, 2 mM sodium butyrate (NaB), […] 12-O-tetradecanoyl phorbol-13-acetate (TPA) or 1 μM of compounds for 72 h, washed in PBS once and lysed in 1×Laemmii buffer. Protein extract equivalent to 10^5 cells were loaded on 8-16% SDS-PAGE gels (Invitrogen) and transferred to nitrocellulose membranes (Millipore). Lytic reactivation was detected with a rabbit polyclonal anti-ZTA and mouse monoclonal anti-EA-D (Abcam) antibodies diluted in 5% evaporated milk and incubated with the membranes for 2 h at RT, or overnight at 4° C., followed by secondary anti-mouse or rabbit HRP-conjugated (Roche). Rabbit antibodies against phospho-p38 MAPK, -S6, -p90RSK and -p53 West Pico were mixed into a PathScan® cocktail (Cell Signaling). […]
# [6] = Mutul-Hp-Luc cells, up to 2 mM NaB
# [7] = human gammaherpesvirus 4, read-out: EC50 values
molecule,measurement,setting,value
COc1ccc(C2c3[nH]c4ccc(Cl)cc4c3CCN2C(=O)c2ccccc2C(F)(F)F)cc1 (centres unmarked) [Compound 16],EC50,"Mutul-Hp-Luc cells [1]; human gammaherpesvirus 4, 48 h",> 500 nM
COc1ccc(C2c3[nH]c4ccc(Cl)cc4c3CCN2S(=O)(=O)c2ccc(OC)cc2)cc1 (centres unmarked) [Compound 26],EC50,"Mutul-Hp-Luc cells [1]; human gammaherpesvirus 4, 48 h",> 500 nM
COc1ccc(C2c3[nH]c4ccc(Cl)cc4c3CCN2C(=O)c2ccccc2Cl)cc1 (centres unmarked) [Compound 14],EC50,"Mutul-Hp-Luc cells [1]; human gammaherpesvirus 4, 48 h",> 500 nM
COc1ccc(C2c3[nH]c4ccc(Cl)cc4c3CCN2C(=O)c2c(Cl)cccc2Cl)cc1 (centres unmarked) [Compound 15],EC50,"Mutul-Hp-Luc cells [1]; human gammaherpesvirus 4, 48 h",> 500 nM
"CCCC(=O)[O-].[Na+] [NaB, sodium butyrate]",acetylation of histone H3,[2],caused histone acetylation in both cell lines
same,concentrations required to trigger the latent to lytic switch,latent EBV,millimolar concentrations
same,cell viability on longer exposure,"Mutul-Hp-Luc cells [3]; 2 mM NaB, longer periods than 48 h",loss of cell viability
same,cell toxicity,Mutul-Hp-Luc cells [3]; [6],relatively low cell toxicity
same,signal-to-background,Mutul-Hp-Luc cells [3]; [6],20-40 fold
same,luciferase response to NaB,"Mutul-Hp-Luc cells [3]; pHEBO-Hp-Luc in Mutul cells, 2 mM NaB vs DMSO",> 20 fold
same,synergy with GCV on killing EBV-positive cells,"EBV positive Mutul cells; Mutul cells, combination with 10 μg/mL GCV",did not synergize with GCV
same,toxicity to cells,"EBV positive Mutul cells; with or without GCV, daily resazurin",toxic to cells regardless of EBV positive status
same,pharmacokinetics,[4],unsuitable pharmacokinetics
COc1ccc(C2NCCc3c2[nH]c2ccc(Cl)cc32)cc1 (centres unmarked) [Compound 11],EC50,"Mutul-Hp-Luc cells [1]; human gammaherpesvirus 4, 48 h",< 500 nM
"Nc1nc(O)c2ncn(COC(CO)CO)c2n1 [GCV, gancyclovir]",reduction of cell viability as single agent,Mutul cells,−10%
CC(C)C[C@H](NC(=O)[C@H](Cc1ccccc1)NC(=O)c1cnccn1)B(O)O [bortezomib],activation of latent EBV,EBV positive BL cells,activator of latent EBV in a limited number of EBV positive BL cells
COc1ccc(C2c3[nH]c4ccc(Cl)cc4c3CCN2C(=O)c2ccc(Cl)cc2)cc1 (centres unmarked) [Compound 19],EC50,"Mutul-Hp-Luc cells [1]; human gammaherpesvirus 4, 48 h",< 500 nM
COc1ccc(C2c3[nH]c4ccc(Cl)cc4c3CCN2C(=O)c2ccc(F)cc2)cc1 (centres unmarked) [Compound 18],EC50,"Mutul-Hp-Luc cells [1]; human gammaherpesvirus 4, 48 h",> 500 nM
arginine butyrate,concentrations required to trigger the latent to lytic switch,latent EBV,millimolar concentrations
same,efficacy in clinical trial,[4],efficacious
same,tolerability in clinical trial,[4],not tolerated due to toxicity
COc1ccc(C2c3[nH]c4ccc(Cl)cc4c3CCN2C(=O)c2cccc(OC)c2)cc1 (centres unmarked) [Compound 12],EC50,"Mutul-Hp-Luc cells [1]; human gammaherpesvirus 4, 48 h",< 500 nM
same,EC50,Mutul-Hp-Luc cells [1]; [7],50 to 200 nM
COC(=O)c1ccccc1NC(=O)N1CCc2c([nH]c3ccc(Cl)cc23)C1c1ccc(OC)cc1 (centres unmarked) [Compound 10],EC50,"Mutul-Hp-Luc cells [1]; human gammaherpesvirus 4, 48 h",< 500 nM
same,EC50,Mutul-Hp-Luc cells [1]; [7],50 to 200 nM
COc1ccc(C2c3[nH]c4ccc(Cl)cc4c3CCN2C(=O)c2ccccc2OC)cc1 (centres unmarked) [Compound 17],EC50,"Mutul-Hp-Luc cells [1]; human gammaherpesvirus 4, 48 h",> 500 nM
COc1ccc(C2c3c(c4cc(Cl)ccc4n3C(=O)c3ccc(Cl)cc3)CCN2C(=O)c2ccc(F)cc2)cc1 (centres unmarked) [Compound 23],EC50,"Mutul-Hp-Luc cells [1]; human gammaherpesvirus 4, 48 h",> 500 nM
COc1ccc(C2c3[nH]c4ccc(Cl)cc4c3CCN2C(=O)c2ccc(C(F)(F)F)cc2)cc1 (centres unmarked) [Compound 20],EC50,"Mutul-Hp-Luc cells [1]; human gammaherpesvirus 4, 48 h",< 500 nM
COc1ccc(C2c3c(c4cc(Cl)ccc4n3C(=O)c3ccc(F)cc3)CCN2C(=O)c2ccc(F)cc2)cc1 (centres unmarked) [Compound 22],EC50,"Mutul-Hp-Luc cells [1]; human gammaherpesvirus 4, 48 h",< 500 nM
same,EC50,Mutul-Hp-Luc cells [1]; [7],50 to 200 nM
COc1ccc(C2c3[nH]c4ccc(Cl)cc4c3CCN2C(=O)c2ccccc2F)cc1 (centres unmarked) [Compound 13],EC50,"Mutul-Hp-Luc cells [1]; human gammaherpesvirus 4, 48 h",> 500 nM
COc1ccc(C(=O)N2CCc3c([nH]c4ccc(Cl)cc34)C2c2ccc(OC)cc2)cc1 (centres unmarked) [Compound 21],EC50,"Mutul-Hp-Luc cells [1]; human gammaherpesvirus 4, 48 h",< 500 nM
same,EC50,Mutul-Hp-Luc cells [1]; [7],50 to 200 nM
COc1ccc(C2c3[nH]c4ccc(Cl)cc4c3CCN2S(=O)(=O)c2ccccc2OC)cc1 (centres unmarked) [Compound 25],EC50,"Mutul-Hp-Luc cells [1]; human gammaherpesvirus 4, 48 h",> 500 nM
"CCCCCCCCCCCCCC(=O)O[C@@H]1[C@@H](C)[C@@]2(O)[C@@H](C=C(CO)C[C@]3(O)C(=O)C(C)=C[C@@H]23)[C@@H]2C(C)(C)[C@]12OC(C)=O [TPA, 12-O-tetradecanoyl phorbol-13-acetate]","phosphorylation of p38 MAPK, S6, p90RSK and p53",[5],increase in phosphorylation
